What is called IC50 is the point on the concentration scale where inhibition reaches its midpoint.

Experimental findings from patent publication US20260356856A1, “KRAS G12S AND G12C INHIBITORS” (MIRATI THERAPEUTICS, INC., priority 2023, published 2026) are described below.

Assay [1] has as its target T1, KRas-mediated phosphorylation of ERK in MKN1 cells (Homo sapiens, UniProt P01116).
T1 construct: pERK HTRF read-out
In words: Inhibition of KRas-mediated phosphorylation of ERK (HTRF), MKN1 cells. Type of assay: cell-based. As to conditions: MKN1 cells (KRas WT); HTRF pERK; 3 h incubation. How it is done: Inhibition of KRas Phosphorylation of ERK (HTRF) by Exemplary Compounds of Formula (Ia) or (Ib)
Cisbio HTRF Advanced pERK Assay Catalog #64AERPEH • Cells: MKN1, PSN1 • Procedure: • 1. Day 1: Seed 6,000 cells/well −25 μl/well in 384-well white solid bottom plate; RPM1_10% FBS. Incubate overnight at 37 °C/5% CO2. • 2.
For orientation: TR-FRET usually uses a lanthanide donor and a delayed reading to cut background.

The target of assay [2] is T2, KRas-mediated phosphorylation of ERK in A549 cells (Homo sapiens, UniProt P01116, G12S).
T2 construct: pERK HTRF read-out
T2 sequence (P01116 1-188 isoform P01116-2 G12S): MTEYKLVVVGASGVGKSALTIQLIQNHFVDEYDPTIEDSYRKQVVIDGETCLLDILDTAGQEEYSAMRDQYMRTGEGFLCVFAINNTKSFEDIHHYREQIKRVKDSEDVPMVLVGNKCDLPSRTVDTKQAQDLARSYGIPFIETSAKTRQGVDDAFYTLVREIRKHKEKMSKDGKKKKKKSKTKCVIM
In words: Inhibition of KRas-mediated phosphorylation of ERK (HTRF), A549 cells. The conditions noted are these: HTRF pERK, 3 h incubation. Type of assay: cell-based.

The target in the next assay is T3, KRas G12C (Homo sapiens, UniProt P01116, G12C).
T3 construct: Biotinylated KRas (corresponding to amino acids 1-169, produced at Accelegan Inc.); biotin (biotinylated); purchased Accelegan Inc
T3 sequence (P01116 1-169 isoform P01116-2 G12C): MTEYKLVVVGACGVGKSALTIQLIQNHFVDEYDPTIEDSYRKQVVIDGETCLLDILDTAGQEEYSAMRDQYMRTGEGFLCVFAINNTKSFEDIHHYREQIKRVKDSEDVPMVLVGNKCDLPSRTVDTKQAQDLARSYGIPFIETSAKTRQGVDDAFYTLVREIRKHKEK
In words: KRas binding assay, TR-FRET displacement of Cy5 labelled tracer. The conditions noted are these: 60-minute incubation at room temperature, 1% DMSO, pH 7.5. In a few lines:
(§1)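 Assay buffer was HEPES (50 mM, pH 7.5) with MgCl2 (5 mM), DTT (1 mM) and Tween-20 (0.005%). Biotinylated KRas spanning residues 1-169 met tracer, terbium streptavidin and compound (1% DMSO, final) for 60 minutes at ambient temperature before reading. POC values were fitted for IC50.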

For a further assay, the target named is T4, KRas G12S (Homo sapiens, UniProt P01116, G12S).
T4 construct: Biotinylated KRas (corresponding to amino acids 1-169, produced at Accelegan Inc.); biotin (biotinylated); purchased Accelegan Inc
T4 sequence (P01116 1-169 isoform P01116-2 G12S): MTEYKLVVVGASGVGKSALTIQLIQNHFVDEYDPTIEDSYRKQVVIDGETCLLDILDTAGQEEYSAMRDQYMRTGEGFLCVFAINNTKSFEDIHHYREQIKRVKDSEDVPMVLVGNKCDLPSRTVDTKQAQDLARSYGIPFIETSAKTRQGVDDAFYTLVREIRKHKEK
The description is as above. As to conditions: 60-minute incubation at room temperature, 1% DMSO, pH 7.5. In a few lines: as §1

The next assay addresses T5, KRas WT (Homo sapiens, UniProt P01116).
T5 construct: Biotinylated KRas (corresponding to amino acids 1-169, produced at Accelegan Inc.); biotin (biotinylated); purchased Accelegan Inc
The assay is described as above. As to conditions: 60-minute incubation at room temperature, 1% DMSO, pH 7.5. In short, it runs like this: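 IC50 came from fitting POC values with a four-parameter equation. Signal was read after one hour at room temperature. Protein was biotin-tagged KRas 1-169 captured by terbium streptavidin, with compound in 1% DMSO (final).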

T1 sequence (P01116 1-188 isoform P01116-2): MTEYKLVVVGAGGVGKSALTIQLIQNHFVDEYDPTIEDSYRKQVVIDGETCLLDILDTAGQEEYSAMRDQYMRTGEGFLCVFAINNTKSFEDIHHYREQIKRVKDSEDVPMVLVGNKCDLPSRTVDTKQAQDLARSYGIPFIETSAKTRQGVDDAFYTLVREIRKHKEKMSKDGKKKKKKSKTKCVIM
T5 sequence (P01116 1-169 isoform P01116-2): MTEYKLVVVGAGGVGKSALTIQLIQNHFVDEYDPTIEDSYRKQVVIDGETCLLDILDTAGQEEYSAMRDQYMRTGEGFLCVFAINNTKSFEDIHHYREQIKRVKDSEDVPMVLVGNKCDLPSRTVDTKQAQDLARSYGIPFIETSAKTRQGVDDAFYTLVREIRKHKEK

On to `Cc1ccn(C(=O)[C@H]2CCCN(c3nc(OC[C@@]45CCCN4C[C@H](F)C5)nc4c(F)c(-c5ccc(F)c6sc(N)c(C#N)c56)c(Cl)cc34)CC2)n1` (atropisomer, axis not shown; (aS)) [Example 169, 2-amino-4-((R)-6-chloro-8-fluoro-2-(((2R,7aS)-2-fluorotetrahydro-1H-pyrrolizin-7a(5H)-yl)methoxy)-4-((S)-4-(3-methyl-1H-pyrazole-1-carbonyl)azepan-1-yl)quinazolin-7-yl)-7-fluorobenzo [b]thiophene-3-carbonitrile], for which the figures for the IC50 in assay [1] and in assay [2] were 9480 nM and 534 nM, respectively.
Regarding `CCc1c(F)ccc2cc(O)cc(-c3ncc4c(N5CCN(C(=O)n6ccc(C)n6)C(C(F)F)C5)nc(OC[C@@]56CCCN5C[C@H](F)C6)nc4c3F)c12` (stereo partly drawn) [Example 125, (2-(difluoromethyl)-4-(7-(8-ethyl-7-fluoro-3-hydroxynaphthalen-1-yl)-8-fluoro-2-(((2R,7aS)-2-fluorotetrahydro-1H-pyrrolizin-7a(5H)-yl)methoxy)pyrido[4,3-d]pyrimidin-4-yl)piperazin-1-yl)(3-methyl-1H-pyrazol-1-yl)methanone], the half-inhibitory concentration (IC50) worked out at 96 nM at KRas G12C, 168 nM on KRas G12S, 84 nM on KRas WT and 6810 nM in assay [2].
Turning to `Cc1ccn(C(=O)[C@@H]2CCCN(c3nc(OC[C@@]45CCCN4C[C@H](F)C5)nc4c(F)c(-c5ccc(F)c6sc(N)c(C#N)c56)c(Cl)cc34)CC2)n1` (atropisomer, axis not shown; (aS)) [Example 171, 2-amino-4-((R)-6-chloro-8-fluoro-2-(((2R,7aS)-2-fluorotetrahydro-1H-pyrrolizin-7a(5H)-yl)methoxy)-4-((R)-4-(3-methyl-1H-pyrazole-1-carbonyl)azepan-1-yl)quinazolin-7-yl)-7-fluorobenzo[b]thiophene-3-carbonitrile], the half-inhibitory concentration (IC50) turned out to be 3040 nM in assay [1] and 6440 nM in assay [2].
Take `CCc1c(F)ccc2cc(O)cc(-c3ncc4c(N5CC[C@H]6[C@@H](C5)[C@H]6C(=O)n5ccc(C)n5)nc(OC[C@@]56CCCN5C[C@H](F)C6)nc4c3F)c12` (stereo in doubt) [Example 99, (cis-3-(7-(8-ethyl-7-fluoro-3-hydroxynaphthalen-1-yl)-8-fluoro-2-(((2R,7aS)-2-fluorotetrahydro-1H-pyrrolizin-7a(5H)-yl)methoxy)pyrido[4,3-d]pyrimidin-4-yl)-3-azabicyclo[4.1.0]heptan-7-yl)(3-methyl-1H-pyrazol-1-yl)methanone]: the IC50 turned out to be 58 nM on KRas G12C, 26 nM at KRas G12S, 1050 nM in assay [1] and 54 nM in assay [2].
Regarding `CCc1c(F)ccc2cc(O)cc(-c3ncc4c(N5CCN(C(=O)n6ccc(C)n6)C(CC#N)C5)nc(OC[C@@]56CCCN5C[C@H](F)C6)nc4c3F)c12` (stereo partly drawn) [Example 126, 2-(4-(7-(8-ethyl-7-fluoro-3-hydroxynaphthalen-1-yl)-8-fluoro-2-(((2R,7aS)-2-fluorotetrahydro-1H-pyrrolizin-7a(5H)-yl)methoxy)pyrido[4,3-d]pyrimidin-4-yl)-1-(3-methyl-1H-pyrazole-1-carbonyl)piperazin-2-yl) acetonitrile], the half-maximal inhibitory concentration (IC50) at KRas G12C amounted to 84 nM; at KRas G12S, 88 nM; on KRas WT, 8 nM; in assay [2], 9800 nM.
Turning to `N#Cc1ccc(OC(=O)C2CCN(c3nc(OCC45CCCN4CCC5)nc4c(F)c(-c5cccc6cccc(F)c56)ncc34)CC2)cc1` [Example 29, 4-cyanophenyl 1-(8-fluoro-7-(8-fluoronaphthalen-1-yl)-2-((tetrahydro-1H-pyrrolizin-7a(5H)-yl)methoxy)pyrido[4,3-d]pyrimidin-4-yl)piperidine-4-carboxylate], the IC50 was 201 nM on KRas G12C, greater than 100000 nM at KRas G12S and 90500 nM on KRas WT.
On the same counts, the results for `COC(=O)C1CCN(c2nc(OCC34CCCN3CCC4)nc3c(F)c(-c4cccc5cccc(F)c45)ncc23)CC1` [Example 41, methyl 1-(8-fluoro-7-(8-fluoronaphthalen-1-yl)-2-((tetrahydro-1H-pyrrolizin-7a(5H)-yl)methoxy)pyrido[4,3-d]pyrimidin-4-yl)piperidine-4-carboxylate] are 18200 nM, 17600 nM and 12300 nM.
On the same counts, the results for `N#Cc1cccc(OC(=O)[C@@H]2[C@@H]3CC[C@H]2CN(c2nc(OCC45CCCN4CCC5)nc4c(F)c(-c5cccc6cccc(F)c56)ncc24)C3)c1` [Example 22, 3-cyanophenyl (1R,5S,8r)-3-(8-fluoro-7-(8-fluoronaphthalen-1-yl)-2-((tetrahydro-1H-pyrrolizin-7a(5H)-yl)methoxy)pyrido[4,3-d]pyrimidin-4-yl)-3-azabicyclo[3.2.1]octane-8-carboxylate] are 95200 nM, greater than 100000 nM and 14100 nM.
On the same counts, the results for `COC(=O)[C@H]1CCN(c2nc(OCC34CCCN3CCC4)nc3c(F)c(-c4cccc5cccc(F)c45)ncc23)C[C@H]1O` [Example 46, methyl (3S,4S)-1-(8-fluoro-7-(8-fluoronaphthalen-1-yl)-2-((tetrahydro-1H-pyrrolizin-7a(5H)-yl)methoxy)pyrido[4,3-d]pyrimidin-4-yl)-3-hydroxypiperidine-4-carboxylate] are greater than 100000 nM, greater than 100000 nM and greater than 100000 nM.
`N#Cc1ccccc1OC(=O)[C@@H]1[C@@H]2CC[C@H]1CN(c1nc(OCC34CCCN3CCC4)nc3c(F)c(-c4cccc5cccc(F)c45)ncc13)C2` [Example 21, 2-cyanophenyl (1R,5S,8r)-3-(8-fluoro-7-(8-fluoronaphthalen-1-yl)-2-((tetrahydro-1H-pyrrolizin-7a(5H)-yl)methoxy)pyrido[4,3-d]pyrimidin-4-yl)-3-azabicyclo[3.2.1]octane-8-carboxylate]: the IC50 at KRas G12C was 15900 nM; on KRas G12S it was greater than 100000 nM; at KRas WT it was 52200 nM.
Taken in the same sequence, the figures for `O=C(Oc1ccc(F)cc1)C1CCN(c2nc(OCC34CCCN3CCC4)nc3c(F)c(-c4cccc5cccc(F)c45)ncc23)CC1` [Example 14, 4-fluorophenyl 1-(8-fluoro-7-(8-fluoronaphthalen-1-yl)-2-((tetrahydro-1H-pyrrolizin-7a(5H)-yl)methoxy)pyrido[4,3-d]pyrimidin-4-yl)piperidine-4-carboxylate] were 877 nM, greater than 100000 nM and 45000 nM.
On the same counts, the results for `O=C(Oc1ccc(F)cc1)[C@@H]1[C@@H]2C[C@H]1CN(c1nc(OCC34CCCN3CCC4)nc3c(F)c(-c4cccc5cccc(F)c45)ncc13)C2` [Example 7, 4-fluorophenyl (1R,5S,6r)-3-(8-fluoro-7-(8-fluoronaphthalen-1-yl)-2-((tetrahydro-1H-pyrrolizin-7a(5H)-yl)methoxy)pyrido[4,3-d]pyrimidin-4-yl)-3-azabicyclo[3.1.1]heptane-6-carboxylate] are 20400 nM, 21200 nM and 24200 nM.
